Like-named read-outs stand apart in the source and are kept apart here.
Columns and labels:
[1] = target: T1, BSA (Bos taurus, UniProt P02769); test: Fluorescence quenching of BSA (Stern-Volmer, double-log, van't Hoff); assay type: binding, bovine; settings: for K SV (quenching constant): BSA 1 μM, pH 7.4; for ΔGexp: ΔGexp = ΔH − TΔS; for K q (quenching rate constant): τ0 = 10^−8 s; for Kd: read-out: K b (binding constant) (converted)
T1 construct: purchased Aladdin's Reagent Co., Ltd. (Shanghai, China)
Description: Fluorescence spectra were carried on a F-7000 fluorescence spectrophotometer (Japan) fitted out with a 1.0 cm quartz dish. The excitation wavelength was set at 280 nm with 5/5 nm slit widths, while the emission wavelength ranged from 290 nm to 500 nm at different temperatures. The BSA solution (1 μM) was titrated with genistein and its amino acid derivatives 4a–4d for three times. The final concentrations of genistein and 4a–4d were (0.0, 6.4, 12.8, 19.2, 25.6, 32, 38.4, 44.8, and 51.2) μM.
The Stern–Volmer equation is often applied to reveal the fluorescence quenching mechanism:[19]1 [drawing 1] where F0 and F are the fluorescence intensities of complex […], respectively.[18] [Q] denotes the concentration of quencher. Ksv and Kq are quenching constant and quenching rate constant of BSA, respectively.[20]τ0 is the lifetime of fluorophore in the absence of genistein, 4a–4d and equals to 10^−8 s.[21] […] It can be observed that the Ksv values decreased gradually with rise in temperature in Table 2. Furthermore, Kq values were in the order of 10^12, which were larger than the maximum diffusion collisional rate constant (2.0 × 10^10 M^−1 s^−1).[22]
Double-logarithmic eqn (2) is often used to explore the binding parameters of static quenching, such as binding constant (Kb) and binding sites (n):[23]2 [drawing 2]
To clarify the binding forces between genistein, 4a–4d and BSA, the thermodynamic parameters were studied via the van't Hoff equations:[25]3 [drawing 3] 4 ΔG = −RT ln K = ΔH − TΔSwhere T denotes the experimental temperature, K denotes the binding constant at the corresponding temperature, R is the gas constant.[26] According to Ross and Subramanian's previous research,[27] the characteristic for van der Waals interactions or/and hydrogen bonding is ΔH < 0 and ΔS < 0, for hydrophobic interaction is ΔH > 0 and ΔS > 0, and for electrostatic interactions is ΔH ≈ 0 and ΔS > 0.[28] The calculation results of the thermodynamic parameters were recorded in Table 3.

[2] = target: T1, BSA; test: Three-dimensional fluorescence spectroscopy of BSA; assay type: binding, bovine
Description: The 3D fluorescence spectra of genistein and compounds 4a–4d were recorded with scanning excitation wavelength ranged from 200 nm to 300 nm with 10 nm interval, and emission wavelength ranged from 290 nm to 470 nm with 5 nm interval for three times. Other parameters were the same as Section 2.4.1.

[3] = tested on: Hela; test: MTT cytotoxicity assay, Hela; assay type: cell-based; settings: Homo sapiens, 48 h, mean ± SD of three experiments, read-out: Cancer cell lines IC50, Hela
Description: (§1) All cell lines were purchased from the Cell Bank of Type Culture Collection of Chinese Academy of Sciences (Shanghai, China). MGC-803 was routinely cultured in RPMI-1640 medium containing 10% FBS and 1% penicillin/streptomycin. MCF-7, HCT-116 and Hela were routinely cultured in medium DMEM/high glucose containing 10% FBS and 1% penicillin/streptomycin. All cell lines were incubated in culture at 37 °C in air with 5% CO2 for 24 h.
(§2) All cell lines were plated in 96-well plates, and each well contains 4000 cells in 100 μL culture medium. Then the cells were treated with genistein or its amino acid derivatives dissolved in DMSO at different doses in a CO2 incubator at 37 °C for 48 h, and DMSO was used as vehicle control. After removing the culture medium, 10 μL MTT and 90 μL blank culture medium were added to each well and incubated for additional 4 h at 37 °C. The absorbance was determined by a microplate-reader at 490 nm.

[4] = tested on: HCT-116; test: MTT cytotoxicity assay, HCT-116; assay type: cell-based; settings: Homo sapiens, 48 h, mean ± SD of three experiments, read-out: Cancer cell lines IC50, HCT-116
Description: as §1, §2

[5] = tested on: MGC-803; test: MTT cytotoxicity assay, MGC-803; assay type: cell-based; settings: Homo sapiens, 48 h, mean ± SD of three experiments, read-out: Cancer cell lines IC50, MGC-803
Description: as §1, §2

[6] = tested on: MCF-7; test: MTT cytotoxicity assay, MCF-7; assay type: cell-based; settings: Homo sapiens, MCF7, 48 h, mean ± SD of three experiments, read-out: Cancer cell lines IC50, MCF-7
Description: as §1, §2

[7] = Peak 1, [BSA]:[compound] = 1:3, 298 K
[8] = Peak 2, [BSA]:[compound] = 1:3, 298 K
[9] = Peak a (Rayleigh scattering), [BSA]:[compound] = 1:3, 298 K

T1 sequence (P02769 25-607): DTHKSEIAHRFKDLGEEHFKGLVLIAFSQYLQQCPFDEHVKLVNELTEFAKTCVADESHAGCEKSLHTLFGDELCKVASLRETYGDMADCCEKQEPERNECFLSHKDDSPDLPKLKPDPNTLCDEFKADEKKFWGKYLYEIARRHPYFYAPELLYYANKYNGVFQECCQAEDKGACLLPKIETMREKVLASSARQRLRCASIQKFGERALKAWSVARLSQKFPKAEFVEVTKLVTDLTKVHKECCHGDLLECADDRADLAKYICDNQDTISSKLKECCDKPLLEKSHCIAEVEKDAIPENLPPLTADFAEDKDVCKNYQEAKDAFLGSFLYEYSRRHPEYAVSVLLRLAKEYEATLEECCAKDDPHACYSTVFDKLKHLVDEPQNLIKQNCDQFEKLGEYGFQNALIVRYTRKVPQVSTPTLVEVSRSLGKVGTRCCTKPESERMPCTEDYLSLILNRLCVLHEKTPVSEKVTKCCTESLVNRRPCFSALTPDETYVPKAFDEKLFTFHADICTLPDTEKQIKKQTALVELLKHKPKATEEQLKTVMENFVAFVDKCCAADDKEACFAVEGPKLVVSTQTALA

## COC(=O)C(CC(C)C)NC(=O)COc1cc(O)c2c(=O)c(-c3ccc(O)cc3)coc2c1 (stereo not drawn) [4d]
[1]; T 298 K
  n (binding sites): 1.50
  K SV (quenching constant): 4.9339 ± 0.0500 10^4 M^−1
  ΔGexp: -39.53 kJ/M
  K q (quenching rate constant): 4.9339 10^12 M^−1 s^−1
  Kd: 0.15 µM
[1]; T 306 K
  n (binding sites): 1.47
  K SV (quenching constant): 4.8535 ± 0.0465 10^4 M^−1
  ΔGexp: -37.19 kJ/M
  K q (quenching rate constant): 4.8535 10^12 M^−1 s^−1
  Kd: 0.209 µM
[1]; T 310 K
  n (binding sites): 1.28
  K SV (quenching constant): 4.5804 ± 0.0360 10^4 M^−1
  ΔGexp: -36.02 kJ/M
  K q (quenching rate constant): 4.5804 10^12 M^−1 s^−1
  Kd: 1.42 µM
[1]; van't Hoff, 298-310 K
  ΔH: -126.67 kJ/M
  ΔS: −292.42 J K^−1 M^−1
[2]; [7]
  3D fluorescence intensity: 263.8 a.u
  3D fluorescence peak position λex/λem: 230/355
[2]; [8]
  3D fluorescence intensity: 331.4 a.u
  3D fluorescence peak position λex/λem: 280/355
[2]; [9]
  3D fluorescence intensity: 155.5 a.u
  3D fluorescence peak position λex/λem: 290/295
[3]
  IC50: 68.1 ± 1.05 µM
[4]
  IC50: 92.87 ± 0.04 µM
[5]
  IC50: 35.4 ± 3.72 µM
[6]
  IC50: 47 ± 3.53 µM
